# Patent publication US11912707B2 (priority 2016, dated 2024)
# Where two headings read alike, the source gives them in different places.
# Tests used:
# [1] = biological target: T1, human kappa-opioid receptor (KOR) (Homo sapiens, UniProt P41145); assay: BRET assay measuring G protein activation, antagonist competition vs U-50,488, human KOR; format: cell-based; details: for Inhibition of the agonist activity of U-50,488 at human KOR: concentration of agonist = 320 nM, FIG. 1
# T1 construct: expressed in transfected cells; host or cells: HEK-293T
# Description: (§1) Human MOR, KOR, or DOR cDNA was transfected alongside GαoB with RLuc8 inserted at position 91 (GαoB-RLuc8), Gβ1 (β1), and Gγ2 fused to the full-length mVenus at its N terminus (mVenus-γ2) (2.5 μg MOR/DOR/KOR, 0.125 μg GαoB-RLuc8, 6.25 μg β1; 6.25 μg mVenus-γ2) into HEK-293T cells (5×10^6 cells/plate) in 10-cm dishes using PEI (Polysciences Inc.; Warrington, PA) in a 1:1 ratio diluted in Opti-MEM (Life Technologies Corp.; Grand Island, NY) to assay for G protein activation as described previously.^2,3 Cells were maintained in Dulbecco's Modified Eagle Medium (high glucose #11965; Life Technologies) supplemented with 10% FBS (Premium Select, Atlanta Biologicals; Atlanta, GA) and 100 U/mL penicillin and 100 μg/mL streptomycin (#15140, Life Technologies). After 24 hours the media was changed, and the experiment was performed 24 hours later (48 hours after transfection).
# (§2) Transfected cells were dissociated and resuspended in phosphate-buffered saline (PBS). Approximately 200,000 cells/well were added to a black-framed, white well 96-well plate (#60050; Perkin Elmer; Waltham, MA). The microplate was centrifuged and the cells were resuspended in phosphate-buffered saline (PBS). For agonist experiments, after 5 minutes, 5 μM of the luciferase substrate coelenterazine H was added to each well. After 5 minutes, ligands were added and the BRET signal was measured at 5 minutes on a PHERAstar FS plate reader. For antagonist competition experiments, cells were preincubated with the antagonist at varying concentrations for 30 minutes. Coelenterazine H (5 μM) was then added to each well for 5 minutes. […] The BRET signal was quantified by calculating the ratio of the light emitted by the energy acceptor, mVenus (510-540 nm), over the light emitted by the energy donor, RLuc8 (485 nm). This drug-induced BRET signal was normalized using the Emax of [D-Ala2, N-Me-Phe4, Gly5-ol]-enkephalin (DAMGO), U-50,488, or [D-Pen(2,5)]enkephalin (DPDPE) as the maximal response at MOR, KOR, and DOR respectively. Dose response curves were fit using a three-parameter logistic equation in GraphPad Prism 6.
# [2] = biological target: T2, human delta-opioid receptor (DOR) (Homo sapiens, UniProt P41143); assay: BRET assay measuring G protein activation, antagonist competition vs DPDPE, human DOR; format: cell-based; details: for Extent of antagonism at Human DOR: competing agonist DPDPE (50 nM)
# T2 construct: expressed in transfected cells; host or cells: HEK-293T
# Description: as §1, §2
# [3] = test system: MOR; details: Takayama 2002; Matsumoto 2004; cited from earlier work
# [4] = Stability in human liver microsomes; format: in vitro ADME; details: pH 7.4, 2 μM test compound, 0.42 mg/mL microsomal protein, 37° C., NADPH, read-out: t1/2 in human liver microsomes
# Description: Microsomal incubations were carried out in 96-well plates in 5 aliquots of 40 μL each (one for each time point). Liver microsomal incubation medium contained PBS (100 mM, pH 7.4), MgCl2 (3.3 mM), NADPH (3 mM), glucose-6 phosphate (5.3 mM), and glucose-6-phosphate dehydrogenase (0.67 units/ml) with 0.42 mg of liver microsomal protein per mL. Control incubations were performed replacing the NADPH-cofactor system with PBS. Test compound (2 μM, final solvent concentration 1.6%) was incubated with microsomes at 37° C., shaking at 100 rpm. Incubations were performed in duplicates. Five time points over 40 minutes were analyzed. The reactions were stopped by adding 12 volumes of 90% acetonitrile-water to incubation aliquots, followed by protein sedimentation by centrifuging at 5500 rpm for 3 minutes. Supernatants were analyzed for remaining test compound using an HPLC system coupled with a tandem mass spectrometer.
# [5] = biological target: T1, human kappa-opioid receptor (KOR); details: Kruegel, A. C. et al. 2016; cited from earlier work
# [6] = biological target: T3, human mu-opioid receptor (MOR) (Homo sapiens, UniProt P35372); details: Kruegel, A. C. et al. 2016; cited from earlier work
# T3 construct: expressed in transfected cells; host or cells: HEK-293T
# [7] = biological target: MOR (Homo sapiens, UniProt P35372); details: Kruegel, A. C. et al. 2016; cited from earlier work
# [8] = biological target: T3, human mu-opioid receptor (MOR); assay: BRET assay measuring G protein activation, agonist mode, human MOR; format: cell-based
# Description: as §1, §2
# [9] = inhibition of reference agonist U-50,488 at 5x its EC50 (320 nM), read-out: Antagonist IC50, Human KOR
# [10] = read-out: Antagonist IC50, Human DOR
SMILES,IC50 [1] [µM],"Inhibition of the agonist activity of U-50,488 at human KOR [1]",half-life at 2 μM [4] [h],IC50 [2] [µM],Type of activity at KOR [5],Type of activity at MOR [6],beta-arrestin recruitment at MOR [7],Emax ([8]; normalized to Emax of DAMGO) [%],further results
"CC[C@@H]1CN2CCc3c([nH]c4cccc(OC)c34)[C@@H]2C[C@@H]1/C(=C/OC)C(=O)OC [(Z)-mitragynine, methyl (Z)-2-((2S,3S,12bS)-3-ethyl-8-methoxy-1,2,3,4,6,7,12,12b-octahydroindolo[2,3-a]quinolizin-2-yl)-3-methoxyacrylate]",,,,,,,,,"IC50 [1, 9]: 42 µM; Extent of antagonism at Human DOR [2]: partial; IC50 [2, 10]: > 100 µM"
"CC[C@@H]1CN2CC[C@@]3(O)C(=Nc4cccc(OC)c43)[C@@H]2C[C@@H]1/C(=C\OC)C(=O)OC [7-hydroxymitragynine, 7-Hydroxymitragynine]",7.9,fully inhibit,4.38,15.6,competitive kappa-opioid receptor (KOR) antagonists,partial MOR agonists,failing to recruit beta-arrestin,60,binding affinities for the MOR [3]: nanomolar; Ki [1]: 0.49 µM
"[2H]C([2H])([2H])O/C=C(/C(=O)OC([2H])([2H])[2H])[C@H]1C[C@H]2c3[nH]c4cccc(OC([2H])([2H])[2H])c4c3CCN2C[C@H]1CC [Compound 18, Methyl-d3 (E)-2-((2S,3S,12bS)-3-ethyl-8-(methoxy-d3)-1,2,3,4,6,7,12,12b-octahydroindolo[2,3-a]quinolizin-2-yl)-3-(methoxy-d3)acrylate]",,,0.585,,,,,,
"CC[C@@H]1CN2CC[C@@]3(O)C(=Nc4cccc(OC)c43)[C@@H]2C[C@@H]1/C(=C/OC)C(=O)OC [(Z)-7-hydroxymitragynine, methyl (Z)-2-((2S,3S,7aS,12bS)-3-ethyl-7a-hydroxy-8-methoxy-1,2,3,4,6,7,7a,12b-octahydroindolo[2,3-a]quinolizin-2-yl)-3-methoxyacrylate]",> 50,,,> 50,,,,64,
"CC[C@@H]1CN2CCc3c([nH]c4cccc(OC)c34)[C@@H]2C[C@@H]1/C(=C\OC)C(=O)OC [mitragynine, Mitragynine]",,fully inhibit,0.447,,competitive kappa-opioid receptor (KOR) antagonists,partial MOR agonists,failing to recruit beta-arrestin,,"binding affinities for the MOR [3]: nanomolar; Ki ([1]; Schild analysis, read-out: Schild pA2 (an estimate of Ki), Human KOR (converted)): 1.4 µM; IC50 [1, 9]: 8.5 µM; Extent of antagonism at Human DOR [2]: partial; IC50 [2, 10]: > 50 µM; Emax, Human MOR ([8]; normalized to Emax of DAMGO): 34%"
"CC[C@@H]1CN2CC[C@]3(Nc4cccc(OC)c4C3=O)[C@@H]2C[C@@H]1/C(=C\OC)C(=O)OC [mitragynine pseudoindoxyl, methyl (E)-2-((2S,6′S,7′S,8a′S)-6′-ethyl-4-methoxy-3-oxo-2′,3′,6′,7′,8′,8a′-hexahydro-5′H-spiro[indoline-2,1′-indolizin]-7′-yl)-3-methoxyacrylate]",4.8,fully inhibit,,0.609,competitive kappa-opioid receptor (KOR) antagonists,partial MOR agonists,failing to recruit beta-arrestin,52,EC50 [8]: 0.0145 µM
"[2H]CO/C=C(/C(=O)OC([2H])([2H])[2H])[C@H]1C[C@H]2C3=Nc4cccc(OC([2H])([2H])[2H])c4[C@@]3(O)CCN2C[C@H]1CC [Compound 19, Methyl-d3 (E)-2-((2S,3S,7aS,12bS)-3-ethyl-7a-hydroxy-8-(methoxy-d3)-1,2,3,4,6,7,7a,12b-octahydroindolo[2,3-a]quinolizin-2-yl)-3-(methoxy-d)acrylate]",,,6.57,,,,,,
